Results published in patent publication US10478437B2, “Combination therapy to enhance the anticancer efficacy of platinum drugs” (University of Pittsburgh-of the Commonwealth System of …, priority 2014, dated 2019).
“Also recorded” adds a separate entry of the source.

Assays:
Type in all cases: cell-based, human
[1] = tested on: cisplatin-resistant ovarian cancer cell line A2780cis; experiment: Caspase-3/7 activity assay (apoptotic cell death), compound alone or with cisplatin; conditions: for activation of Caspase-3/7 in combination with cisplatin compared to mdivi-1: FIG. 7A and Table 6; for activation of Caspase-3/7 in combination with cisplatin compared to mdivi-1 / activity in the screen (Caspase-3/7 activity and microscopic examination), active / inactive / Caspase-3/7 activity upon combination with cisplatin compared to cisplatin alone or compound alone: in words; for caspase-3/7 activity (Lum), compound with cisplatin: compound 20 μM with 20 μM cisplatin; for caspase-3/7 activity (Lum), compound with cisplatin / caspase-3/7 activity (Lum), compound alone / caspase-3/7 activity (Lum) with compound and cisplatin (20 μM) / caspase-3/7 activity (Lum) with compound alone: 20 h; for caspase-3/7 activity (Lum) with compound and cisplatin (20 μM) / caspase-3/7 activity (Lum) with compound alone: Table 6; for caspase-3/7 activity (Lum) with compound alone: untreated cells 9 ± 1; for activity in the screen (Caspase-3/7 activity and microscopic examination), active / inactive: alone or in the presence of cisplatin
Protocol: Cell proliferation was determined using a CyQUANT Direct Cell Proliferation Assay kit (Invitrogen), the activity of caspase-3/7 was measured using a Caspase-Glo 3/7 Assay Systems (Promega, Madison, Wis.), and the MTS calorimetric survival assay was performed using the CellTiter 96 AQueous One Solution Cell Proliferation Assay kit (Promega, Madison, Wis.), according to the manufacturer's instructions. The survival fractions were calculated after setting untreated control cells at 100%. The data were plotted and curve fitted using GraphPad Prism software. To quantify the number of cells with active caspase-3, cells were fixed with 4% paraformaldehyde (Electron microscopy sciences, Hatfield, Pa.), stained with Alexa Fluor-488 conjugated antibody against cleaved caspase-3 (Asp175) (Cell Signaling Technology, Danvers, Mass.) followed by flow cytometry. An FITC Annexin V Apoptosis Detection Kit (BD PharMingen, San Diego, Calif.) was used to quantify apoptotic cells, according to the manufacturer's instructions.
A Caspase-3/7 assay was performed to evaluate the activity of the 36 compounds of FIG. 1 in vitro in the cisplatin-resistant ovarian cancer cell line, A2780cis, alone or in the presence of cisplatin. A microscopic examination of apoptotic morphologic changes was also carried out right before the measurement of Caspase-3/7 activity, in order to confirm that the data on the activation of the Caspase-3/7 following treatment is consistent with morphological change and reflects cell death.

A2780cis cells = experiment: Western blot of caspase/PARP cleavage, Noxa induction, RPA32 and H2AX phosphorylation; conditions: compound 20 μM + cisplatin 20 μM, 20 h, FIG. 7B; in words
Protocol: Whole cell lysate was prepared by lysing cells in cell lysis buffer (Cell signaling technology) containing complete protease inhibitor (Roche). Cell lysates were then cleared at 15,000 rpm for 15 min at 4° C. The protein content was quantified using a Bio-Rad Protein Assay kit (Bio-Rad Laboratories, Hercules, Calif.). The equal amount of protein was separated on Tris-glycine gels (Invitrogen). The separated proteins were blotted onto a polyvinylidene difluoride membrane and blocked overnight at 4° C. in phosphate-buffered saline containing 0.1% Tween 20 and 10% nonfat dry milk (blocking buffer). Membranes were incubated with primary antibodies in blocking buffer overnight at 4° C. Primary antibodies used were: β-actin from Sigma; Bax, Bak, Caspase-9 and cleaved Caspase-3 from Cell Signaling Technology; phospho-Histone H2AX (Ser 139) and Noxa from Millipore. Membranes were then washed and incubated in peroxidase conjugated anti-rabbit IgG (Sigma) or anti-mouse IgG (Sigma) secondary antibody for 1 h at room temperature. Membranes were developed using SuperSignal West Femto Maximum Sensitivity Substrate (Thermo Fisher Scientific).
A2780cis cells were treated with cisplatin alone, compounds alone or in combination with cisplatin at indicated concentrations for 20 h to analyze apoptotic cell death in response to treatment. […] Expression and cleavage of several major caspases (Caspase-8, Caspase-9 and Caspase-3), as well as poly(ADP-ribose) polymerase (PARP) and NOXA. A2780cis cells were treated with cisplatin (20 μM) alone, compounds (20 μM) alone or in combination with cisplatin for 20 h.
To determine the effects of the compounds on DNA damage and mitochondrial dysfunction, A2780cis cells were treated with cisplatin (20 μM) alone or the combination of cisplatin with 20 μM of compound 1-6. Replication protein A (RPA) is a single strand-specific DNA-binding protein, consisting of three subunits, RPA70, RPA32, and RPA14. RPA32 is phosphorylated in response to DNA replication stress. Western blot analysis was performed to evaluate the phosphorylation of RPA32 and histone H2AX, the induction of Noxa expression and cleavage of caspase-3. […] A2780cis cells were treated with cisplatin (50 μM) alone, 1-6 (50 μM) alone or the combination of cisplatin and compound 1-6 for 4 h. The oxygen consumption rate (OCR) was measured by a Seahorse extracellular flux analyzer.

[2] = tested on: cisplatin-resistant ovarian cancer cell line A2780cis; experiment: CellTiter-Blue cell viability assay, compound alone or with cisplatin or carboplatin, 24 h; conditions: 24 h; for cell viability after combination with carboplatin compared to carboplatin alone: FIG. 6, in words; for viability at 10 µM / viability at 20 µM / viability at 50 µM: Homo sapiens, A2780cis, untreated cells = 100%, read-out: survival (%) of cells with compound alone; for viability at 10 µM: compound 10 μM; for viability at 20 µM: compound 20 μM; for viability at 50 µM: compound 50 μM
Protocol: Data were expressed as mean±standard deviation. A Student's t test was used for the comparisons between the treatment with the combination of analogs with cisplatin and with analogs alone. P<0.05 was considered statistically significant. Combination index was calculated using CompuSyn software. A value of 0.3-0.7 for the combination index indicates synergism, 0.1-0.3 indicates strong synergism, and <0.1 indicates very strong synergism (Chou, 2006).
To further validate the activity of the identified 11 active compounds (see FIG. 3), a CellTiter-Blue cell viability assay was performed with increasing concentrations (10 μM, 20 μM and 50 μM) of the disclosed compounds (see FIG. 4 and Table 5). Cisplatin resistant ovarian cancer cells (A2780cis) were treated with a disclosed compound alone, cisplatin alone or a combination of a compound with cisplatin for 24 h to determine the effects of the compounds on cell viability.
Analysis of the effect of the disclosed compounds with another platinum-containing compound, carboplatin, was performed. A2780cis cells were treated with carboplatin alone or with the combination of carboplatin and the disclosed compounds at indicated concentrations for 24 h followed by the analysis of cell viability.

[3] = Table 1, compound 20 μM, mean ± S.D. of triplicates
[4] = compound 5 μM + cisplatin 20 μM
[5] = compound 10 μM + cisplatin 20 μM
[6] = compound 20 μM + cisplatin 20 μM
[7] = compound 10 μM + carboplatin 200 μM
[8] = compound 20 μM + carboplatin 200 μM
[9] = compound 50 μM + carboplatin 200 μM
[10] = compound 50 μM + cisplatin 20 μM

SMILES	activation of Caspase-3/7 in combination with cisplatin compared to mdivi-1 [1]	caspase-3/7 activity (Lum), compound with cisplatin ([1]; Table 1) [Lum]	caspase-3/7 activity (Lum), compound alone [1, 3] [Lum]	caspase-3/7 activity (Lum), compound alone ([1]; Table 2, compound 20 μM) [Lum]	caspase-3/7 activity (Lum) with compound and cisplatin (20 μM) [1, 4] [Lum]	caspase-3/7 activity (Lum) with compound alone ([1]; compound 5 μM) [Lum]	caspase-3/7 activity (Lum) with compound and cisplatin (20 μM) [1, 5] [Lum]	caspase-3/7 activity (Lum) with compound alone ([1]; compound 10 μM) [Lum]	caspase-3/7 activity (Lum) with compound and cisplatin (20 μM) [1, 6] [Lum]	caspase-3/7 activity (Lum) with compound alone ([1]; compound 20 μM) [Lum]	activity in the screen (Caspase-3/7 activity and microscopic examination), active / inactive [1]	Caspase-3/7 activity upon combination with cisplatin compared to cisplatin alone or compound alone [1]	cleavage of caspases and PARP, induction of Noxa in combination with cisplatin (A2780cis cells)	cell viability after combination with carboplatin compared to carboplatin alone [2]	viability at 10 µM [2] [%]	viability at 20 µM [2] [%]	viability at 50 µM [2] [%]	Survival (%) of cells with compound and carboplatin (200 μM) [2, 7] [%]	survival (%) of cells with compound and cisplatin (20 μM) [2, 5] [%]	Survival (%) of cells with compound and carboplatin (200 μM) [2, 8] [%]	other results
CCc1ccccc1-n1c(=S)[nH]c2ccccc2c1=O [Compound 1-19]	more effective; also recorded: more potent than mdivi-1	136 ± 12	12 ± 1	12 ± 1	36 ± 3	9 ± 2	114 ± 5	8 ± 1	96 ± 11	9 ± 1	active	increase in Caspase-3/7 activity	cleavage of Caspase-8, 9, 3, PARP and the induction of Noxa	cell viability was reduced	103 ± 1.2	99.6 ± 3	98.5 ± 1.7	103.5 ± 1.6	47.9 ± 4.8	70.0 ± 2.9	survival (%) of cells with compound and cisplatin (20 μM) [2, 6]: 25.3 ± 1.0%; Survival (%) of cells with compound and carboplatin (200 μM) [2, 9]: 31.6 ± 4.2%; survival (%) of cells with compound and cisplatin (20 μM) [2, 10]: 4.9 ± 1.4%
Cc1ccc(-n2c(=S)[nH]c3ccccc3c2=O)cc1F [Compound 1-17]	more effective; also recorded: more potent than mdivi-1	123 ± 5	10 ± 2	10 ± 2	34 ± 3	15 ± 8	76 ± 7	10 ± 1	101 ± 6	10 ± 1	active	increase in Caspase-3/7 activity	cleavage of Caspase-8, 9, 3, PARP and the induction of Noxa	cell viability was reduced	101 ± 2.9	101 ± 2.1	101 ± 1.4	90.7 ± 0.9	63.0 ± 1.1	79.3 ± 3.9	survival (%) of cells with compound and cisplatin (20 μM) [2, 6]: 39.6 ± 3.0%; Survival (%) of cells with compound and carboplatin (200 μM) [2, 9]: 69.7 ± 4.1%; survival (%) of cells with compound and cisplatin (20 μM) [2, 10]: 26.7 ± 1.4%
